Patent US6537986B2, “Oxazolidinone antibacterial agents having a thiocarbonyl funtionality” (Pharmacia & Upjohn Company, priority 1997, dated 2003)
Values after ≈ are worked out from the molar mass of the structure shown.

How the values were obtained:
S. pyogenes (SPYO 152) = test: MIC, standard agar dilution method; format: cell-based; details: Streptococcus pyogenes, Table II, Mueller Hinton agar, incubated overnight at 35° C., read-out: SPYO 152 MIC
Experimental: (§1) MIC Test Method The in vitro MICs of test compounds were determined by a standard agar dilution method. […] Serial 2-fold dilutions of each sample are made using 1.0 ml aliquots of sterile distilled water. To each 1.0 ml aliquot of drug is added 9 ml of molten Mueller Hinton agar medium. The drug-supplemented agar is mixed, poured into 15×100 mm petri dishes, and allowed to solidify and dry prior to inoculation. Vials of each of the test organisms are maintained frozen in the vapor phase of a liquid nitrogen freezer. Test cultures are grown overnight at 35° C. on the medium appropriate for the organism. Colonies are harvested with a sterile swab, and cell suspensions are prepared in Trypticase Soy broth (TSB) to equal the turbidity of a 0.5 McFarland standard. A 1:20 dilution of each suspension is made in TSB. […] The plates are incubated overnight at 35° C. Following incubation the Minimum Inhibitory Concentration (MIC μg/ml), the lowest concentration of drug that inhibits visible growth of the organism, is read and recorded.

[1] = test system: S. pneumoniae (SPNE 9912); test: MIC, standard agar dilution method; format: cell-based; details: Streptococcus pneumoniae, Table II, Mueller Hinton agar, incubated overnight at 35° C., read-out: SPNE 9912 MIC
Experimental: as §1

[2] = test system: S. epidermidis (SEPI 30593); test: MIC, standard agar dilution method; format: cell-based; details: Staphylococcus epidermidis, Table II, Mueller Hinton agar, incubated overnight at 35° C.
Experimental: as §1

E. Faecium (EFAE 12712) = test: MIC, standard agar dilution method; format: cell-based; details: Enterococcus faecium; Table II; key: E. Faecium; agar dilution, Mueller Hinton agar, incubated overnight at 35° C.; read-out: EFAE 12712 MIC
Experimental: as §1

[3] = test system: Haemophilus influenzae (HINF 30063); test: MIC, standard agar dilution method; format: cell-based; details: Haemophilus influenzae, Table II, Mueller Hinton agar, incubated overnight at 35° C.
Experimental: as §1

[4] = test system: Enterococcus faecalis (EFAE 9217); test: MIC, standard agar dilution method; format: cell-based; details: Table II, key: Enterococcus faecalis, Mueller Hinton agar, incubated overnight at 35° C., read-out: EFAE 9217 MIC
Experimental: as §1

[5] = test system: Moraxella catarrhalis (MCAT 30610); test: MIC, standard agar dilution method; format: cell-based; details: Moraxella catarrhalis, Table II, Mueller Hinton agar, incubated overnight at 35° C.
Experimental: as §1

S. aureus (SAUR 9213) = test: MIC, standard agar dilution method; format: cell-based; details: Staphylococcus aureus, Table II, Mueller Hinton agar, incubated overnight at 35° C., read-out: SAUR 9213 MIC
Experimental: as §1

SMILES: NC(=S)NC[C@H]1CN(c2ccc3c(c2)CCN3C(=O)CO)C(=O)O1 [Example 32, (S)-N-[[3-[1-(Hydroxyacetyl)-5-indolinyl]-2-oxo-5-5 oxazolidinyl]methyl]thiourea]
- MIC (S. pyogenes (SPYO 152)): 0.25 µg/mL (≈ 0.713 µM)
- MIC [1]: 0.25 µg/mL (≈ 0.713 µM)
- MIC [2]: 2 µg/mL (≈ 5.71 µM)
- MIC (E. Faecium (EFAE 12712)): 2 µg/mL (≈ 5.71 µM)
- MIC [3]: 8 µg/mL (≈ 22.8 µM)
- MIC [4]: 4 µg/mL (≈ 11.4 µM)
- MIC [5]: 2 µg/mL (≈ 5.71 µM)
- MIC (S. aureus (SAUR 9213)): 16 µg/mL (≈ 45.7 µM)
- melting point: 214 to 215 °C (dec.)

SMILES: O=C1O[C@@H](CNC(=S)C(F)(F)F)CN1c1ccc(N2CCOCC2)c(F)c1 [Example 16, (S)-N-[[3-[3-Fluoro-4-(4-moropholinyl)phenyl]-2-oxo-5-oxazolidinyl]methyl]-α,α,α-trifluorothioacetamide]
- MIC (S. pyogenes (SPYO 152)): 8 µg/mL (≈ 19.6 µM)
- MIC [1]: 2 µg/mL (≈ 4.91 µM)
- MIC [2]: 8 µg/mL (≈ 19.6 µM)
- MIC (E. Faecium (EFAE 12712)): 16 µg/mL (≈ 39.3 µM)
- MIC [3]: > 64 µg/mL
- MIC [4]: 16 µg/mL (≈ 39.3 µM)
- MIC [5]: 32 µg/mL (≈ 78.5 µM)
- MIC (S. aureus (SAUR 9213)): 8 µg/mL (≈ 19.6 µM)
- melting point: 151 to 152 °C

SMILES: NC(=S)NC[C@H]1CN(c2ccc(N3CC[S+]([O-])CC3)c(F)c2)C(=O)O1 [Example 33, (S)-N-[[3-[3-Fluoro-4-(4-thiomorpholinyl)phenyl]-2-oxo-5-oxazolidinyl]methyl]thiourea, thiomorpholine S-oxide]
- MIC (S. pyogenes (SPYO 152)): 0.25 µg/mL (≈ 0.647 µM)
- MIC [1]: 0.25 µg/mL (≈ 0.647 µM)
- MIC [2]: 2 µg/mL (≈ 5.17 µM)
- MIC (E. Faecium (EFAE 12712)): 1 µg/mL (≈ 2.59 µM)
- MIC [3]: 4 µg/mL (≈ 10.3 µM)
- MIC [4]: 4 µg/mL (≈ 10.3 µM)
- MIC [5]: 2 µg/mL (≈ 5.17 µM)
- MIC (S. aureus (SAUR 9213)): 4 µg/mL (≈ 10.3 µM)
- melting point: 212 to 213 °C

SMILES: CC(=S)NC[C@H]1CN(c2ccc(N3CCN(C(=O)CO)CC3)c(F)c2)C(=O)O1 [Example 25, (S)-N-[[3-[3-Fluoro-4-[4-(hydroxyacetyl)-1-piperazinyl]phenyl]-2-oxo-5-oxazolidinyl]methyl]thioacetamide]
- MIC (S. pyogenes (SPYO 152)): < 0.125 µg/mL
- MIC [1]: < 0.125 µg/mL
- MIC [2]: 0.25 µg/mL (≈ 0.609 µM)
- MIC (E. Faecium (EFAE 12712)): 0.5 µg/mL (≈ 1.22 µM)
- MIC [3]: 2 µg/mL (≈ 4.87 µM)
- MIC [4]: 0.5 µg/mL (≈ 1.22 µM)
- MIC [5]: 2 µg/mL (≈ 4.87 µM)
- MIC (S. aureus (SAUR 9213)): 0.5 µg/mL (≈ 1.22 µM)
- melting point: 163 to 165 °C

SMILES: CC(=S)NC[C@H]1CN(c2ccc(N3CC[S+]([O-])CC3)c(F)c2)C(=O)O1 [Example 27, (S)-N-[[3-[3-Fluoro-4-(4-thiomorpholinyl)phenyl]-2-oxo-5-oxazolidinyl]methyl]thio-acetamide, thiomorpholine S-oxide]
- MIC (S. pyogenes (SPYO 152)): 0.25 µg/mL (≈ 0.649 µM)
- MIC [1]: < 0.125 µg/mL
- MIC [2]: 0.5 µg/mL (≈ 1.3 µM)
- MIC (E. Faecium (EFAE 12712)): 0.5 µg/mL (≈ 1.3 µM)
- MIC [3]: 4 µg/mL (≈ 10.4 µM)
- MIC [4]: 1 µg/mL (≈ 2.59 µM)
- MIC [5]: 2 µg/mL (≈ 5.19 µM)
- MIC (S. aureus (SAUR 9213)): 0.5 µg/mL (≈ 1.3 µM)
- melting point: 176 to 177 °C

SMILES: CC(=S)NC[C@H]1CN(c2cc(F)c(N3CCN(C(=O)CO)CC3)c(F)c2)C(=O)O1 [Example 29, (S)-N-[[3-[3,5-Difluoro-4-[4-(hydroxyacetyl)-1-piperazinyl]phenyl]-2-oxo-5-oxazolidinyl]methyl]thioacetamide]
- MIC (S. pyogenes (SPYO 152)): < 0.125 µg/mL
- MIC [1]: < 0.125 µg/mL
- MIC [2]: 0.25 µg/mL (≈ 0.583 µM)
- MIC (E. Faecium (EFAE 12712)): 0.25 µg/mL (≈ 0.583 µM)
- MIC [3]: 2 µg/mL (≈ 4.67 µM)
- MIC [4]: 0.25 µg/mL (≈ 0.583 µM)
- MIC [5]: 0.5 µg/mL (≈ 1.17 µM)
- MIC (S. aureus (SAUR 9213)): 0.25 µg/mL (≈ 0.583 µM)
- melting point: 110 to 111 °C (dec.)

SMILES: CC(=S)NC[C@H]1CN(c2ccc3c(c2)CCN3C(=O)CO)C(=O)O1 [Example 24, (S)-N-[[3-[1-(Hydroxyacetyl)-5-indolinyl]-2-oxo-5-oxazolidinyl]methyl]thioacetamide]
- MIC (S. pyogenes (SPYO 152)): 0.25 µg/mL (≈ 0.715 µM)
- MIC [1]: < 0.125 µg/mL
- MIC [2]: 0.25 µg/mL (≈ 0.715 µM)
- MIC (E. Faecium (EFAE 12712)): 0.5 µg/mL (≈ 1.43 µM)
- MIC [3]: 4 µg/mL (≈ 11.4 µM)
- MIC [4]: 0.5 µg/mL (≈ 1.43 µM)
- MIC [5]: 2 µg/mL (≈ 5.72 µM)
- MIC (S. aureus (SAUR 9213)): 1 µg/mL (≈ 2.86 µM)
- melting point: 175 to 176 °C (dec.)

SMILES: NC(=S)NC[C@H]1CN(c2ccc(-n3cncn3)c(F)c2)C(=O)O1 [Example 30]
- MIC (S. pyogenes (SPYO 152)): 0.25 µg/mL (≈ 0.743 µM)
- MIC [1]: < 0.125 µg/mL
- MIC [2]: 1 µg/mL (≈ 2.97 µM)
- MIC (E. Faecium (EFAE 12712)): 0.5 µg/mL (≈ 1.49 µM)
- MIC [3]: 8 µg/mL (≈ 23.8 µM)
- MIC [4]: 1 µg/mL (≈ 2.97 µM)
- MIC [5]: 2 µg/mL (≈ 5.95 µM)
- MIC (S. aureus (SAUR 9213)): 4 µg/mL (≈ 11.9 µM)
- melting point: 214 to 215 °C

SMILES: CCC(=S)NC[C@H]1CN(c2ccc(N3CCOCC3)c(F)c2)C(=O)O1 [Example 14, (S)-N-[[3-[3-Fluoro-4-(4-morpholinyl)phenyl]-2-oxo-5-oxazolidinyl]methyl]thiopropion-amide]
- MIC (S. pyogenes (SPYO 152)): 0.5 µg/mL (≈ 1.36 µM)
- MIC [1]: 0.25 µg/mL (≈ 0.68 µM)
- MIC [2]: 0.5 µg/mL (≈ 1.36 µM)
- MIC (E. Faecium (EFAE 12712)): 1 µg/mL (≈ 2.72 µM)
- MIC [3]: 8 µg/mL (≈ 21.8 µM)
- MIC [4]: 1 µg/mL (≈ 2.72 µM)
- MIC [5]: 1 µg/mL (≈ 2.72 µM)
- MIC (S. aureus (SAUR 9213)): 1 µg/mL (≈ 2.72 µM)
- melting point: 138 to 139 °C

SMILES: NC(=S)NC[C@H]1CN(c2ccc(N3CCN(C(=O)CO)CC3)c(F)c2)C(=O)O1 [Example 31, (S)-N-[[3-[3-Fluoro-4-[4-(hydroxyacetyl)-1-piperazinyl]phenyl]-2oxo-5-oxazolidinyl]-methyl]thiourea]
- MIC (S. pyogenes (SPYO 152)): 0.25 µg/mL (≈ 0.608 µM)
- MIC [1]: < 0.125 µg/mL
- MIC [2]: 1 µg/mL (≈ 2.43 µM)
- MIC (E. Faecium (EFAE 12712)): 1 µg/mL (≈ 2.43 µM)
- MIC [3]: 4 µg/mL (≈ 9.72 µM)
- MIC [4]: 1 µg/mL (≈ 2.43 µM)
- MIC [5]: 1 µg/mL (≈ 2.43 µM)
- MIC (S. aureus (SAUR 9213)): 2 µg/mL (≈ 4.86 µM)
- melting point: 209 to 210 °C

SMILES: O=C1O[C@@H](CNC(=S)C(F)F)CN1c1ccc(N2CCOCC2)c(F)c1 [Example 18, (S)-N-[[3-[3-Fluoro-4-(4-morpholinyl)phenyl]-2-oxo-5-oxazolidinyl]methyl]-α,α-difluorothioacetamide]
- MIC (S. pyogenes (SPYO 152)): 1 µg/mL (≈ 2.57 µM)
- MIC [1]: < 0.5 µg/mL
- MIC [2]: 1 µg/mL (≈ 2.57 µM)
- MIC (E. Faecium (EFAE 12712)): 2 µg/mL (≈ 5.14 µM)
- MIC [3]: 32 µg/mL (≈ 82.2 µM)
- MIC [4]: 2 µg/mL (≈ 5.14 µM)
- MIC [5]: 4 µg/mL (≈ 10.3 µM)
- MIC (S. aureus (SAUR 9213)): 2 µg/mL (≈ 5.14 µM)
- melting point: 125 to 127 °C

SMILES: O=C1O[C@@H](CNC=S)CN1c1ccc(N2CCOCC2)c(F)c1 [Example 13, (S)-N-[[3-[3-Fluoro-4-(4-morpholinyl)phenyl]-2-oxo-5-oxazolidinyl]methyl]-thioformamide]
- MIC (S. pyogenes (SPYO 152)): 1 µg/mL (≈ 2.95 µM)
- MIC [1]: 0.5 µg/mL (≈ 1.47 µM)
- MIC [2]: 1 µg/mL (≈ 2.95 µM)
- MIC (E. Faecium (EFAE 12712)): 2 µg/mL (≈ 5.89 µM)
- MIC [3]: > 16 µg/mL
- MIC [4]: 2 µg/mL (≈ 5.89 µM)
- MIC [5]: 8 µg/mL (≈ 23.6 µM)
- MIC (S. aureus (SAUR 9213)): 1 µg/mL (≈ 2.95 µM)
- melting point: 150 to 155 °C (dec.)
